The compounds below were run against human CYP11B2 (Homo sapiens (Human), UniProt P19099) (assay: Inhibitory effect on hCYP11B2 (aldosterone production by mitochondrial fraction of V79 cells stably expressing human CYP11B2, HTRF)). Details: 0.5 μmol/L deoxycorticosterone, 150 μmol/L NADPH, 1.5-2 hours at room temperature.
Assay type: biochemical
Protocol: Experimental Example 1 (Inhibitory Effect on hCYP11B2)
The pcDNA3.1-human CYP11B2 plasmid was transfected into a Chinese hamster lung fibroblast V79 cell line to produce a cell line stably expressing human CYP11B2 gene.
The cells were cultured and grown in the Dulbecco's modified Eagle's/Ham's medium supplemented with 10% fetal bovine serum and 1% G418 disulfate solution under the environment of 37° C., 95% air, and 5% CO2, and the grown cells were harvested.
Then, the cells were fractionated to obtain mitochondria by reference to a method described in Chabre et al. JCE 86 M 85 (11) 4060-68, 2000. In particular, the cells suspended in a 5 mmol/L Tris-HCl buffer (pH 7.4) containing 250 mmol/L sucrose were homogenized in a Teflon (Registered Trademark) Potter Elvehjem homogenizer, and then the suspension was centrifuged (800×g, 15 min.). The supernatant was separated and again centrifuged (10000×g, 15 min.) to obtain a pellet (mitochondrial fraction).
The mitochondrial fraction diluted with a buffer containing 10 mmol/L KH2PO4, 10 mmol/L Tris, 20 mmol/L KCl, 25 mmol/L sucrose, 5 mmol/L MgCl2, and 0.05% bovine serum albumin was dispensed to a 96-well plate. 0.5 μmol/L Deoxycorticosterone, 150 μmol/L NADPH and a compound of each concentration were added to each well, and incubated for 1.5-2 hours at room temperature to produce aldosterone. An amount of the produced aldosterone in the incubated solution was determined by using HTRF (Homogeneous Time Resolved Fluorescence) method.
IC 50 (nmol/L) was calculated by analyzing the aldosterone production inhibition rate (%) of each concentration of compounds by non-linear regression to a logistic curve.

Sequence of human CYP11B2 (P19099 25-503): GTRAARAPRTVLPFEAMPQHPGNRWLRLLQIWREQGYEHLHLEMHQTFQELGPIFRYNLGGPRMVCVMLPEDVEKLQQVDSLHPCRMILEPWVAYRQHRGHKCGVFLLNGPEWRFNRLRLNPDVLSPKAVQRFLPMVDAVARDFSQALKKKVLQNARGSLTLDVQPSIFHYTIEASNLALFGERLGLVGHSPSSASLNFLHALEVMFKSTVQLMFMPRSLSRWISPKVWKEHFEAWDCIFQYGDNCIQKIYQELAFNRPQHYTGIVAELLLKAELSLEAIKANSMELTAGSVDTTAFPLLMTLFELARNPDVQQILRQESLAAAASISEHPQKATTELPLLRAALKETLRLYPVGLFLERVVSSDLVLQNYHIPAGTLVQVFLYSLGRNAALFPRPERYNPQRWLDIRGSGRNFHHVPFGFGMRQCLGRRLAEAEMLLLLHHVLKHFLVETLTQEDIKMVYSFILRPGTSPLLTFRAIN

| SMILES | IC50 [nM] |
| --- | --- |
| CN1CC[C@H](NC(=O)CN2CCN(c3nncc(-c4ccc(Cl)cc4)n3)CC2)CC1=O [Example 54] | 7.2 |
| Cc1ccccc1-c1cnnc(N(Cc2ccccn2)S(C)(=O)=O)n1 [Example 236, 3-[N-(methylsulfonyl)-N-(2-pyridylmethyl)amino]-5-(o-tolyl)-1,2,4-triazine] | 23 |
| O=C(CN1CCN(c2nncc(-c3ccc(F)cc3)n2)CC1)NCCN1CCS(=O)(=O)CC1 [Example 47] | 11 |
| CC(C)[C@@H](CO)NC(=O)CN1CCN(c2nncc(-c3ccc(C(F)(F)F)cc3)n2)CC1 [Example 16] | 16 |
| Cc1ccc(-c2cnnc(N3CCN(CC(=O)N[C@H]4CC[C@H](S(C)(=O)=O)CC4)CC3)n2)cc1 [Example 50] | 6.3 |
| O=C(CN1CCN(c2nncc(-c3ccc(F)cc3)n2)CC1)NC1CN(C(=O)C2(O)CC2)C1 [Example 141] | 11 |
| Clc1ccc(CNc2cnnc(N3CCOCC3)n2)cc1 [Example 257, 5-(4-chlorobenzyl) amino-3-morpholino-1,2,4-triazine] | 13 |
| CC(C)NC(=O)CN1CCN(c2nncc(-c3ccc(C(F)(F)F)cc3)n2)CC1 [Example 221] | 2.4 |
| c1ccc(COc2cnnc(N3CCOCC3)n2)cc1 [Example 256, 5-benzyloxy-3-morpholino-1,2,4-triazine] | 26 |
| Cc1ccccc1-c1cnnc(N2CCN(CC(=O)Nc3cccnc3)CC2)n1 [Example 86] | 0.5 |
| Cc1ccccc1-c1cnnc(N2CC[C@@H](Oc3ccncc3)C2)n1 [Example 188] | 6 |
| Cc1ccc(-c2cnnc(N3CCN(CC(=O)NC4CCN(CCNS(C)(=O)=O)CC4)CC3)n2)cc1 [Example 62] | 10 |
| Cc1ccccc1-c1cnnc(C2CCCN(c3ncccn3)C2)n1 (stereo not drawn) [Example 244, 3-[1-(pyrimidine-2-yl)-piperidin-3-yl]-5-(o-tolyl)-1,2,4-triazine] | 11 |
| Cc1nc[nH]c1CN1CCC(NC(=O)CN2CCN(c3nncc(-c4ccc(F)cc4)n3)CC2)CC1 [Example 153] | 18 |
| Cc1ccccc1-c1cnnc(N2CCC(CCCO)CC2)n1 [Example 183] | 0.7 |
| C[C@H]1COCCC1NC(=O)CN1CCN(c2nncc(-c3ccc(Cl)cc3)n2)CC1 (stereo partly drawn) [compound 161] | 6.1 |
| CNC(=O)CN1CCC(NC(=O)CN2CCN(c3nncc(-c4ccc(C)cc4)n3)CC2)CC1 [Example 85] | 9.9 |
| Cc1nc[nH]c1CN1CCC(NC(=O)CN2CCN(c3nncc(-c4ccc(Cl)cc4)n3)CC2)CC1 [Example 154] | 1.1 |
| Cc1ccccc1-c1cnnc(N2CCN(c3ccc(F)cc3)CC2)n1 [Example 170, 3-[4-(4-fluorophenyl)piperazin-1-yl]-5-(o-tolyl)-1,2,4-triazine] | 23 |

| SMILES | IC50 [nM] |
| --- | --- |
| CC(=O)N[C@H]1CC[C@H](NC(=O)CN2CCN(c3nncc(-c4ccc(C)cc4)n3)CC2)CC1 [Example 48] | 9 |
| CC(C)NC(=O)CN1CCN(c2nncc(-c3ccc4ncsc4c3)n2)CC1 [Example 220] | 20 |
| NC(=O)N1CCC(O)(CNC(=O)CN2CCN(c3nncc(-c4ccc(Cl)cc4)n3)CC2)CC1 [Example 59] | 19 |
| CC(C)NC(=O)CN1CCN(c2nncc(-c3ccc4c(c3)CCO4)n2)CC1 [Example 219] | 3.1 |
| Clc1ccc(-c2cnnc(N3CCN(C4CCOCC4)CC3)n2)cc1 [Example 178] | 5 |
| Cc1ncc(CN2CCC(NC(=O)CN3CCN(c4nncc(-c5ccc(F)cc5)n4)CC3)CC2)[nH]1 [Example 147] | 18 |
| Cn1c(-c2cnnc(N3CCOCC3)n2)cc2ccccc21 [Example 211, 5-(1-methyl-1H-indol-2-yl)-3-morpholino-1,2,4-triazine] | 2.4 |
| O=C(CN1CCN(c2nncc(-c3ccc(F)cc3)n2)CC1)N[C@H]1CC[C@H](N2CCOCC2)CC1 [Example 28] | 8.4 |
| CNC(=O)CN1CCC(NC(=O)CN2CCN(c3nncc(-c4ccc(F)cc4)n3)CC2)CC1 [Example 44] | 17 |
| O=C1NCC2(CCN(c3nncc(-c4ccc5ccccc5c4)n3)CC2)O1 [Example 199] | 12 |
| CN(C)[C@@H]1CCC[C@H](NC(=O)CN2CCN(c3nncc(-c4ccc(F)cc4)n3)CC2)C1 [compound 160] | 13 |
| O=C(CN1CCN(c2nncc(-c3ccc(F)cc3)n2)CC1)NC1CCN(CC(=O)N2CCOCC2)CC1 [Example 38] | 14 |
| CO[C@H]1CC[C@H](NC(=O)CN2CCN(c3nncc(-c4ccc5c(cnn5C)c4)n3)CC2)CC1 [Example 19] | 17 |
| CC(=O)N1CCC(CNc2nncc(-c3ccc4ccccc4c3)n2)CC1 [Example 196] | 67 |
| CN1CCO[C@@H](CNC(=O)CN2CCN(c3nncc(-c4ccc(F)cc4)n3)CC2)C1 [Example 159a, 5-(4-fluorophenyl)-3-[4-[[(4-methylmorpholyn-2-yl)methyl]carbamoylmethyl]piperazin-1-yl]-1,2,4-triazine] | 7.7 |
| CN(C)[C@H]1CC[C@H](NC(=O)C(O)C2CCN(c3nncc(-c4ccc(F)cc4)n3)CC2)CC1 (relative stereo) [Example 252, 3-[4-[[[trans-4-(dimethylamino)cyclohexyl]carbamoyl]hydroxymethyl]piperidino]-5-(4-fluorophenyl)-1,2,4-triazine] | 15 |
| CC(C)NC(=O)NC1CCN(c2nncc(-c3ccc(F)cc3)n2)CC1 [Example 180] | 6.1 |
| CC(C)NC(=O)CN1CCN(c2nncc(-c3cccc4c3COCC4)n2)CC1 [Example 218] | 9.8 |
| Cc1ccc(-c2cnnc(N3CCN(CC(=O)Nc4cnn(CC(=O)N(C)C)c4)CC3)n2)cc1 [Example 75] | 7.6 |

| SMILES | IC50 [nM] |
| --- | --- |
| CN(C)[C@H]1CC[C@H](NC(=O)CN2CCN(c3nncc(-c4ccc(Cl)cc4)n3)CC2)CC1 [Example 18] | 7.9 |
| CC(C)NC(=O)CN1CCN(c2nncc(-c3ccc(C#N)nc3)n2)CC1 [Example 215, 5-(2-cyano-5-pyridyl)-3-[4-(isopropylcarbamoylmethyl)piperazin-1-yl]-1,2,4-triazine] | 29 |
| CC(C)CC(=O)NN1CCN(c2nncc(-c3ccc(Cl)cc3)n2)CC1 [Example 251, 5-(4-chlorophenyl)-3-[4-[(3-methylbutanoyl)amino]piperazin-1-yl]-1,2,4-triazine] | 7.5 |
| CN1CC[C@H](NC(=O)CN2CCN(c3nncc(-c4ccc5c(c4)COC5)n3)CC2)CC1=O [Example 84] | 25 |
| O=C1CN([C@H]2CC[C@H](NC(=O)CN3CCN(c4nncc(-c5ccc(F)cc5)n4)CC3)CC2)CCN1 [Example 26] | 8.5 |
| CNC(=O)Cn1cc(NC(=O)CN2CCN(c3nncc(-c4ccc(C)cc4)n3)CC2)cn1 [Example 79] | 4.5 |
| CNC(=O)CO[C@H]1CC[C@H](NC(=O)CN2CCN(c3nncc(-c4ccc(F)cc4)n3)CC2)CC1 [Example 55] | 8.7 |
| CC(C)NC(=O)CN1CCN(c2nncc(-c3ccc4c(c3)CNN4C)n2)CC1 [Example 222] | 26 |
| CN(CCCS(C)(=O)=O)c1nncc(-c2ccc3ccccc3c2)n1 [Example 192] | 38 |
| CN(C)C(=O)Cn1cc(NC(=O)CN2CCN(c3nncc(-c4ccc(Cl)cc4)n3)CC2)cn1 [Example 76] | 4.5 |
| CN(C)C(=O)Cn1cc(NC(=O)CN2CCN(c3nncc(-c4ccc(F)cc4)n3)CC2)cn1 [Example 71] | 6.1 |
| CNC(=O)Cn1cc(NC(=O)CN2CCN(c3nncc(-c4ccc(F)cc4)n3)CC2)cn1 [Example 80] | 4.5 |
| O=C(CN1CCN(c2nncc(-c3ccc(F)cc3)n2)CC1)NC1CCN(CC2=NCCN2)CC1 [Example 151, 3-[4-[[1-[(4,5-dihydro-1H-imidazol-2-yl)methyl]piperidin-4-yl]carbamoylmethyl]piperazin-1-yl]-5-(4-fluorophenyl)-1,2,4-triazine] | 16 |
| c1nnc(N2CCOCC2)nc1CC1CCCCC1 [Example 233, 5-cyclohexylmethyl-3-morpholino-1,2,4-triazine] | 20 |
| O=C(CN1CCN(c2nncc(-c3ccc(Cl)cc3)n2)CC1)NC1CCS(=O)(=O)CC1 [Example 27] | 13 |
| CNC(=O)Cn1cc(NC(=O)CN2CCN(c3nncc(-c4ccc(Cl)cc4)n3)CC2)cn1 [Example 81] | 2.7 |
| CN(C)[C@H]1CC[C@H](NC(=O)CN2CCN(c3nncc(-c4cc(F)ccc4F)n3)CC2)CC1 [Example 83] | 7.6 |
| O=C(CN1CCN(c2nncc(-c3ccc(C(F)(F)F)cc3)n2)CC1)NC1CC2COCC(C1)C2O (stereo not drawn) [Example 157a, 3-[4-[[(7-exo-9-endo)-9-hydroxy-3-oxabicyclo[3.3.1]nonan-7-yl]carbamoylmethyl]piperazin-1-yl]-5-(4-trifluoromethylphenyl)-1,2,4-triazine] | 14 |
| CN1CCNC(=O)C12CCC(NC(=O)CN1CCN(c3nncc(-c4ccc(F)cc4)n3)CC1)CC2 (stereo not drawn) [Example 82] | 12 |

Reference: patent US10029993B2, “Disubstituted 1, 2, 4-triazine compound” (MITSUBISHI TANABE PHARMA CORPORATION, priority 2014, dated 2018)
